Reference: publication PMC5970136, “Molecular basis of dimer formation during the biosynthesis of benzofluorene-containing atypical angucyclines” (Nature Communications, 2018)
Converted amounts (≈) assume the structure as drawn.

Legend:
Assay in all cases: microbe, parasite or virus in culture
Design in all cases: broth microdilution in Mueller-Hinton broth, minimum inhibitory concentration
A. baumannii ATCC 19606 = test system: T1, A. baumannii ATCC 19606; details: Acinetobacter baumannii, ATCC19606, 18 h
T1 construct: ATCC 19606
Description: (§1) Antimicrobial activities were measured against seven indicator strains (Staphylococcus aureus ATCC 29213, Escherichia coli ATCC 25922, Enterococcus faecalis ATCC 29212, Acinetobacter baumannii ATCC 19606, Bacillus subtilis SCSIO BS01, Micrococcus Luteus SCSIO ML01, and methicillin resistant S. aureus ATCC 43300) by the broth microdilution method[8],[9]. Bacterial strains were grown to achieve an optical absorbance of 0.04−0.06 at 600 nm on a rotary shaker at 37 °C. […] The minimum inhibitory concentration (MIC) values were measured after 18 h cultivation. Each compound was tested in triplicates with TMP as a positive control. […] A proof of concept experiment was carried out in which FST D (7) was incubated with the antibacterial agent trimethoprim (TMP, 34). Two products 35 and 36 isolated from this reaction (Fig. 6a, Supplementary Fig. 128) were structurally characterized as hybrids of TMP and FST (Fig. 6a; Supplementary Figs. 129−142). Similar results were obtained upon incubation of TMP (34) with compound 27, but not with compound 28 (Supplementary Fig. 143). These findings again support the hypothesis that spontaneous formation of a p-QM precursor is a prerequisite for the production of FST hybrids.

[1] = test system: T2, Staphylococcus aureus MRSA ATCC 43300; details: 18 h
T2 construct: ATCC 43300 (methicillin resistant)
Description: as §1

B. subtilis SCSIO BS01 = test system: T3, B. subtilis SCSIO BS01; details: Bacillus subtilis, SCSIOBS01, 18 h
T3 construct: SCSIO BS01
Description: as §1

E. coli ATCC 25922 = test system: T4, E. coli ATCC 25922; details: Escherichia coli, ATCC25922, 18 h
T4 construct: ATCC 25922
Description: as §1

M. Luteus SCSIO ML01 = test system: T5, M. Luteus SCSIO ML01; details: Micrococcus luteus, 18 h
T5 construct: SCSIO ML01
Description: as §1

E. faecalis ATCC 29212 = test system: T6, E. faecalis ATCC 29212; details: Enterococcus faecalis, ATCC29212, 18 h
T6 construct: ATCC 29212
Description: as §1

S. aureus ATCC 29213 = test system: T7, S. aureus ATCC 29213; details: Staphylococcus aureus, ATCC29213, 18 h
T7 construct: ATCC 29213
Description: as §1

| SMILES | MIC (A. baumannii ATCC 19606) [µg/mL] | MIC [1] [µg/mL] | MIC (B. subtilis SCSIO BS01) [µg/mL] | MIC (E. coli ATCC 25922) [µg/mL] | MIC (M. Luteus SCSIO ML01) [µg/mL] | MIC (E. faecalis ATCC 29212) [µg/mL] | MIC (S. aureus ATCC 29213) [µg/mL] |
| --- | --- | --- | --- | --- | --- | --- | --- |
| COc1cc(Cc2cnc(N)nc2N)cc(OC)c1OC [Trimethoprim] | 64 (≈ 220 µM) | 0.5 (≈ 1.72 µM) | 0.5 (≈ 1.72 µM) | 0.25 (≈ 0.861 µM) | 1 (≈ 3.44 µM) | 2 (≈ 6.89 µM) | 0.5 (≈ 1.72 µM) |
| Cc1ccc2c3c(c(O)cc2c1O)-c1c(O)cccc1C3=O [compound 12, isoprefluostatin] | > 64 | 64 (≈ 219 µM) | 32 (≈ 109 µM) | > 64 | 64 (≈ 219 µM) | > 64 | 64 (≈ 219 µM) |
| C[C@]12O[C@H]1[C@H](Nc1ccc(C(=O)O)cc1)c1c(cc(O)c3c1C(=O)c1cccc(O)c1-3)C2=O [compound 14, FST S] | > 64 | > 64 | > 64 | > 64 | > 64 | > 64 | > 64 |
| CC(=O)NN1c2c(c3c(c4c2C(=O)C(C)(O)C=C4)C(=O)c2cccc(O)c2-3)OC2C1c1c(cc(O)c3c1C(=O)c1cccc(O)c1-3)C(=O)C2(C)O (centres unmarked) [compound 15, difluostatin B] | > 64 | > 64 | > 64 | > 64 | > 64 | > 64 | > 64 |
| Cc1cc(O)cc(O)c1C(=O)c1c(O)cccc1Cc1cc2c(c(=O)o1)C1c3c(cc(O)c4c3C(=O)c3cccc(O)c3-4)C(=O)C(C)(O2)C1O (centres unmarked) [compound 16, difluostatin C] | > 64 | > 64 | > 64 | > 64 | > 64 | > 64 | > 64 |
| CC12OC1C(O)c1c(cc(O)c3c1C(=O)c1c(C4c5c(cc(O)c6c5C(=O)c5cccc(O)c5-6)C(=O)C5(C)OC45)ccc(O)c1-3)C2=O (centres unmarked) [compound 24, difluostatin F] | > 64 | > 64 | > 64 | > 64 | > 64 | > 64 | > 64 |
| COC1c2c(cc(O)c3c2C(=O)c2c(C4c5c(cc(O)c6c5C(=O)c5cccc(O)c5-6)C(=O)C5(C)OC45)ccc(O)c2-3)C(=O)C2(C)OC12 (centres unmarked) [compound 26, difluostatin H] | > 64 | > 64 | 64 (≈ 99.3 µM) | > 64 | > 64 | > 64 | > 64 |
| Cc1ccc2c(c1)OC1(C)C(=O)c3cc(O)c4c(c3C(N2)C1O)C(=O)c1cccc(O)c1-4 (centres unmarked) [compound 33, 33] | > 64 | > 64 | > 64 | > 64 | > 64 | > 64 | > 64 |
